Measurements taken from US20200247849A1, “PEPTIDE AGONISTS AND ANTAGONISTS OF TLR4 ACTIVATION” (PEPTICOM LTD, priority 2016, published 2020).

How the values were obtained:
Type in all cases: cell-based
Raw 264.7 cells = assay: Raw cells activation, FACS of activation markers CD80, CD40, CD86, MHC-II; conditions: 24 h and 48 h, compared to negative control and other peptides
Experimental: Additional testing was carried out to verify the activation levels if the peptides using expression level of activation markers. Raw cells were activated using the peptides of SEQ ID Nos. 1, 4 and 5 and a control peptide. The analysis of the activation level was done by examining the expression level of few activation markers. In order to verify the obtained results, two repeats were done. Standard Raw cells activation and FACS staining protocol were carried out.
The following describes the experimental design in detail. 5-7.5X10^6 Raw 264.7 cells were seeded in 6-well plates 24 h prior to the stimulation in 3ml/well of DMEM containing 4 mmol/L glutamine and 10% heat-inactivated FCS. At the next day, cells were treated with bacterial LPS (10 or 100 ng/ml, E coli, sigma) as positive control, and with peptides SEQ ID Nos. 1, 4, 5 and the control peptide (50, 100 and 200 μM for each peptide). The volume of the incubation was 1.5 ml for each well. After 24 or 48 h (two experiments), the concentrations of nitrite were measured in the culture supernatant by the Griess assay while absorbance was read at 550 nm. Simultaneously, the cells were stained for surface receptors: CD40, CD80, CD86 and MHC-II with the appropriate antibodies (biolegend) and analysed by flow cytometry using FSC express 3 software. […]

[1] = test system: TLR4 with MD2 or CD14 co-receptor; assay: Reporter gene (SEAP) PAMP assay in NIH3T3 cells expressing TLR4 with MD2 or CD14 co-receptor; conditions: summary of FIGS. 6A-6V; for Co-Receptor/s: co-receptor (MD2/CD14) via which the effect occurs; for Activity: type of effect (activation/inhibition) on TLR4
Text: FIGS. 6A-6V show the dose response inhibitor/activator effects of the designed peptides using a reporter gene assay. The reporter gene assay is composed of NIH3T3 cells transfected with either MD2 or CD14 along with TLR4 and the NF-κB-inducible reporter gene Secreted Alkaline Phosphatase (SEAP) to monitor TLR4 activation (Burger-[…] al. 2010, A new cell-based innate immune receptor assay for the examination of receptor activity, ligand specificity, signaling pathways and the detection of pyrogens. […] The receptors are coupled to for the detection of inhibitory activity, cells were treated with the peptide prior to exposure to LPS and the response to LPS is measured at variable peptide doses (as labeled). The detection of cell activation was performed using the peptide alone, at variable doses, as indicated in the respective graphs. The following presents in more details the experimental procedures. Experimental setup: The cell-based Assay is performed with different NIH3T3 reporter cell lines (NIH 3T3 PRR SEAP-TLR4/CD14 or -TLR4/MD2) and the control cell line NIH 3T3 SEAP. The NIH3T3 SEAP cell line is used in order to determine the background of the alkaline phosphatase expression. It is a cell line stably transfected with only the reporter gene plasmid. For each assay a vial of the master cell bank is revitalized and seeded in a standard cell culture flask (75 cm^2 T-Flask) at day one. Cells are cultured in 20 ml culture media (DMEM supplemented with 10% FCS (heat inactivated), 50 units/ ml penicillin, 0.05 mg/ ml streptomycin and 2 mmol/ L L-glutamine). The cells are cultured at 37° C. in a 5% CO2 humidified atmosphere. At Day 1: For the PAMP Assay cells are seeded in a 96-well plate at a density of 0.3.10^5 cells/well in a final volume of 100 μl culture media (DMEM, 10% FCS (heat inactivated)). To ensure equal culture conditions the 96-well cell culture plates are placed side by side and cultivated in a humidified CO2 incubator (37° C. and 5% CO2). […] After a cultivation period of 24 h the media is removed and replaced with the respective volume of fresh media (DMEM, 0.5% FCS (heat inactivated)).The lyophilized peptides are stored in a freezer at -20° C. upon arrival. For the experiments they are dissolved in DMSO (to the highest possible concentration). Before opening the peptides are allowed to equilibrate to room temperature (in order to reduce the uptake of moisture). For each experiment the stock solution is diluted in DMEM to the appropriate working concentration. […] Sonication was also used to help dissolve the peptides. Immediately after replacing the media, the diluted peptides are applied in a serial dilution to the cells and directly after that the agonist is added to the cells. After adding peptide and […] the final volume in each well of a 96 well plate amounts 100 μl/well. The culture medium containing 0.5% FCS is used as a negative reference item. The induction is performed for 18 h at 37° C. and 5% CO2. At Day 3: To determine the final SEAP value, 50 μl of the supernatant is carefully transferred in a new 96-well plate (Greiner-F-plate) and 50 μl of the substrate (pNPP; p-nitrophenyl phosphate) is added. SEAP catalyzes the hydrolysis of pNPP to the final product para-nitrophenol (yellow) which can be detected by a photometric analysis using an UV-VIS reader at 405 nm. […] The results of FIGS. 6A-6V with respect to peptide activity are summarized in Table 1 above with respect to the type of effect of the respective peptide (activation/inhibition) and with respect to the corresponding co-receptor (MD2/CD14). Data concerning SEQ ID No. 22 with respect to co-receptor CD14 is in preparation.

TLR4/MD2 = target: T1, TLR4/MD2 (Homo sapiens, UniProt O00206+Q9Y6Y9); assay: Reporter gene assay, NIH3T3 cells TLR4 with MD2 co-receptor
T1 construct: expressed in transfected cells; host or cells: NIH3T3 (NIH 3T3 PRR SEAP-TLR4/MD2)
T1 sequence (O00206 24-839): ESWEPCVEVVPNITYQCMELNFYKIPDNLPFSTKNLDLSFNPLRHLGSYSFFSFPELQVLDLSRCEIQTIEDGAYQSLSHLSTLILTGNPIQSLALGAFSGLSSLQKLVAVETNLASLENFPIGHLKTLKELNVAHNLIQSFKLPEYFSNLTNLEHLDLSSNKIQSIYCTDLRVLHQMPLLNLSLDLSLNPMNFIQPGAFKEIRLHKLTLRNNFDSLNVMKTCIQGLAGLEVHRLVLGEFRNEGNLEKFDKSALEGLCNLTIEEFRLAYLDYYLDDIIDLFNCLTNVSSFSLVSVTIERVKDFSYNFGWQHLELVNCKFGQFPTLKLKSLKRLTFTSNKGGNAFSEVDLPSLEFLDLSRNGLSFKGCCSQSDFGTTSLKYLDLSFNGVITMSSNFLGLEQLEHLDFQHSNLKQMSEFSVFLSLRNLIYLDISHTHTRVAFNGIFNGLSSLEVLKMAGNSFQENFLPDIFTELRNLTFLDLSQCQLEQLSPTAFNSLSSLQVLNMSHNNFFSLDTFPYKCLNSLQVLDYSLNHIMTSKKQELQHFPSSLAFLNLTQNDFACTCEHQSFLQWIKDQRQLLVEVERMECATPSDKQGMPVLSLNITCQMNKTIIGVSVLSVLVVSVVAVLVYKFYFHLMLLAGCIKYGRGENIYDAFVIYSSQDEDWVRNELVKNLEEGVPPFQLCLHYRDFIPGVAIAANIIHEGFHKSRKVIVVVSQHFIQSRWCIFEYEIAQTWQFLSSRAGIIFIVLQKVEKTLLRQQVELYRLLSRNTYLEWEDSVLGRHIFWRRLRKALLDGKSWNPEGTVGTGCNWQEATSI
T1 sequence (Q9Y6Y9 19-160): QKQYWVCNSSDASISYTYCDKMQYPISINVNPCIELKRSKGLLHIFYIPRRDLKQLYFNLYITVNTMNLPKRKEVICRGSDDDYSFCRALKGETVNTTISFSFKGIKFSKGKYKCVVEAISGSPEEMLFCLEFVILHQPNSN
Text: FIGS. 6A-6V present peptide activity using NIH3T3 cells that express TLR4, with either the MD2 co-receptor (top) or CD14 co-receptor (bottom), for peptides of SEQ ID Nos. 1-22, respectively, according to some embodiments of the invention. FIGS. 6A-6V show the dose response inhibitor/activator effects of the designed peptides using a reporter gene assay. The reporter gene assay is composed of NIH3T3 cells transfected with either MD2 or CD14 along with TLR4 and the NF-κB-inducible reporter gene Secreted Alkaline Phosphatase (SEAP) to monitor TLR4 activation (Burger-Kentischer et al. 2010, A new cell-based innate immune receptor assay for the examination of receptor activity, ligand specificity, signaling pathways and the detection of pyrogens. J Immunol Methods. 358(1-2): 93-103). […] The receptors are coupled to for the detection of inhibitory activity, cells were treated with the peptide prior to exposure to LPS and the response to LPS is measured at variable peptide doses (as labeled). […]
At Day 3: To determine the final SEAP value, 50 μl of the supernatant is carefully transferred in a new 96-well plate (Greiner-F-plate) and 50 μl of the substrate (pNPP; p-nitrophenyl phosphate) is added. SEAP catalyzes the hydrolysis of pNPP to the final product para-nitrophenol (yellow) which can be detected by a photometric analysis using an UV-VIS reader at 405 nm. […]

Substance	stimulation of raw cells (expression of activation markers) (Raw 264.7 cells)	Co-Receptor/s [1]	Activity [1]	activation with respect to MD2 (TLR4/MD2)
LAWYFGRKIKE (Inhibitor) [SEQ ID No. 11]	most promising stimulator	MD2	Inhibitor	–
c[WMLGMESI] (cyclic; Activator, cyclic) [SEQ ID No. 7]	–	CD14	Activator	weak activator
